Experiments:
Settings in all cases: 72 h
BV-173 [1] = test system: BV-173
Summary of the method: (§1)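 In 384-well plates holding acoustically pre-printed compounds at five tenfold doses from 1 to 10,000 nM, in duplicate, fifteen myeloid leukaemia cell lines were grown in RPMI 1640 for 72 h at 37 °C with 5% CO2. Luminescent ATP viability was scaled between vehicle and a positive control at 10 µM. The IC50 was then taken from log-logistic dose–response fits with four parameters.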

HEL [2] = test system: HEL
Summary of the method: as §1

HL-60 [3] = test system: HL-60
Summary of the method: as §1

K-562 [4] = test system: K-562
Summary of the method: as §1

KCL-22 [5] = test system: KCL-22
Summary of the method: as §1

KG-1 = test system: KG-1
Summary of the method: as §1

KU-812 [6] = test system: KU-812
Summary of the method: as §1

LAMA-84 [7] = test system: LAMA-84
Summary of the method: as §1

ML-2 [8] = test system: ML-2
Summary of the method: as §1

MOLM-13 = test system: MOLM-13
Summary of the method: as §1

MV4-11 = test system: MV4-11
Summary of the method: as §1

Mono-Mac-6 [9] = test system: Mono-Mac-6
Summary of the method: as §1

NOMO-1 [10] = test system: NOMO-1
Summary of the method: as §1

SHI-1 [11] = test system: SHI-1
Summary of the method: as §1

THP-1 = test system: THP-1
Summary of the method: as §1

HL-60 [12] = assay: cell viability (% survival relative to DMSO control); higher = less cytotoxic
Summary of the method: (§2)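 HL-60 cells in RPMI 1640 with 10% FBS were rescreened against the full library on 384-well plates at five tenfold concentrations, 1–10,000 nM, in duplicate. Each screen was run with DMSO or 100 nM of one of three metabolic inhibitors, for 72 h at 37 °C, 5% CO2. Viability was read by CellTiter-Glo and normalised to DMSO and 10 μM proteasome-inhibitor wells. Where given, area under the curve came from four-parameter log-logistic fits (drc, PharmacoGx).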

BV-173 [13] = assay: cell viability (% survival relative to DMSO control, bortezomib = 0%); higher = less cytotoxic
Summary of the method: (§3)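 Percent survival is reported as the mean of duplicate wells. Cells from 10 AML and 5 CML lines were plated in 384-well plates containing compounds at 1, 10, 100, 1000 or 10000 nM and kept for 72 h at 37 °C in 5% CO2. Readout used CellTiter-Glo luminescence, scaled so that vehicle equals 100% and a 10 µM positive control equals 0%.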

HEL [14] = assay: as above
Summary of the method: as §3

HL-60 [15] = assay: as above
Summary of the method: as §3

K-562 [16] = assay: as above
Summary of the method: as §3

KCL-22 [17] = assay: as above
Summary of the method: as §3

KU-812 [18] = assay: as above
Summary of the method: as §3

LAMA-84 [19] = assay: as above
Summary of the method: as §3

ML-2 [20] = assay: as above
Summary of the method: as §3

Mono-Mac-6 [21] = assay: as above
Summary of the method: as §3

NOMO-1 [22] = assay: as above
Summary of the method: as §3

SHI-1 [23] = assay: as above
Summary of the method: as §3

HL-60 [24] = assay: area under dose-response curve (viability, 1 nM-10 uM) (fraction (0-1)); higher = more sensitive
Summary of the method: as §2

C[C@H](NC(=O)c1sccc1OCc1ccc(Cl)cc1)c1ccccc1
Settings | IC50 (cell viability) [µM]
BV-173 [1] | > 10
HEL [2] | > 10
HL-60 [3] | 0.751
K-562 [4] | > 10
KCL-22 [5] | > 10
KG-1 | > 10
KU-812 [6] | > 10
LAMA-84 [7] | > 10
ML-2 [8] | > 10
MOLM-13 | > 10
MV4-11 | > 10
Mono-Mac-6 [9] | > 10
NOMO-1 [10] | > 10
SHI-1 [11] | > 10
THP-1 | > 10

cell viability [%], HL-60 [12]
Settings | 0.001 µM | 0.01 µM | 0.1 µM | 1 µM | 10 µM
co-treatment: AZD3965 100 nM | 70.8 | 87.5 | 99.14 | 103 | 92.2
co-treatment: DMSO vehicle | 99.5 | 98.9 | 96.69 | 104 | 97.6
co-treatment: GSK2194069 100 nM | 83.9 | 89.91 | 98.7 | 74.5 | 92.5
co-treatment: pictilisib 100 nM | 90.8 | 95.7 | 94.9 | 95.2 | 108

Settings | area under dose-response curve, co-treatment: AZD3965 100 nM | area under dose-response curve, co-treatment: DMSO vehicle | area under dose-response curve, co-treatment: GSK2194069 100 nM | area under dose-response curve, co-treatment: pictilisib 100 nM | cell viability, 1 nM [%] | cell viability, 10 nM [%] | cell viability, 100 nM [%] | cell viability, 1000 nM [%] | cell viability, 10000 nM [%]
BV-173 [13] | – | – | – | – | 93.5 | 99.7 | 89.2 | 90.1 | 50.4
HEL [14] | – | – | – | – | 98.3 | 101 | 97.6 | 97.5 | 91.4
HL-60 [15] | – | – | – | – | 90.6 | 84.1 | 106 | 35.7 | 56
HL-60 [24] | < 0.0301 | < 0.0301 | < 0.0301 | < 0.0301 | – | – | – | – | –
K-562 [16] | – | – | – | – | 96.4 | 93.3 | 87.6 | 97.2 | 62
KCL-22 [17] | – | – | – | – | 111 | 106 | 97.8 | 84 | 65.6
KU-812 [18] | – | – | – | – | 84.6 | 96.1 | 94.8 | 95.8 | 59.8
LAMA-84 [19] | – | – | – | – | 94.2 | 100 | 94 | 98.9 | 65.4
ML-2 [20] | – | – | – | – | 104 | 108 | 98.8 | 106 | 72.4
Mono-Mac-6 [21] | – | – | – | – | 88.8 | 102 | 102 | 98.3 | 88.8
NOMO-1 [22] | – | – | – | – | 96.6 | 108 | 99.3 | 102 | 101
SHI-1 [23] | – | – | – | – | 82.5 | 98.7 | 97.9 | 95.4 | 75.7

NC(=O)c1cccc(-c2cccc(OC(=O)NC3CCCCC3)c2)c1 [URB-597]
Settings | IC50 (cell viability) [µM]
BV-173 [1] | > 10
HEL [2] | > 10
HL-60 [3] | > 10
K-562 [4] | > 10
KCL-22 [5] | > 10
KG-1 | > 10
KU-812 [6] | > 10
LAMA-84 [7] | > 10
ML-2 [8] | > 10
MOLM-13 | > 10
MV4-11 | > 10
Mono-Mac-6 [9] | > 10
NOMO-1 [10] | > 10
SHI-1 [11] | > 10
THP-1 | > 10

cell viability [%], HL-60 [12]
Settings | 0.001 µM | 0.01 µM | 0.1 µM | 1 µM | 10 µM
co-treatment: AZD3965 100 nM | 101 | 105 | 101 | 103 | 103
co-treatment: DMSO vehicle | 100 | 104 | 99.6 | 100 | 102
co-treatment: GSK2194069 100 nM | 103 | 113.65 | 98.1 | 101 | 104
co-treatment: pictilisib 100 nM | 108 | 106.8 | 100 | 97.2 | 111

cell viability [%]
Settings | 1 nM | 10 nM | 100 nM | 1000 nM | 10000 nM
BV-173 [13] | 91 | 104 | 105 | 104 | 115
HEL [14] | 102 | 104 | 103 | 110 | 95.2
HL-60 [15] | 98.7 | 89.2 | 114 | 94.3 | 103
K-562 [16] | 102 | 98 | 100 | 90.6 | 100
KCL-22 [17] | 105 | 106 | 104 | 98.2 | 109
KU-812 [18] | 92.1 | 99.1 | 103 | 103 | 87.2
LAMA-84 [19] | 99.8 | 96.9 | 99.6 | 98.3 | 96.1
ML-2 [20] | 92.2 | 94.2 | 105 | 105 | 114
Mono-Mac-6 [21] | 102 | 99.6 | 97.2 | 117 | 123
NOMO-1 [22] | 101 | 103 | 105 | 96.1 | 110
SHI-1 [23] | 93.9 | 86.1 | 89.4 | 100 | 110

O=C1O[C@H]([C@@H](O)CO)C(O)=C1O [Vitamin C (ascorbate)]
Settings | IC50 (cell viability) [µM]
BV-173 [1] | > 10
HEL [2] | > 10
HL-60 [3] | > 10
K-562 [4] | > 10
KCL-22 [5] | > 10
KG-1 | > 10
KU-812 [6] | > 10
LAMA-84 [7] | > 10
ML-2 [8] | > 10
MOLM-13 | > 10
MV4-11 | > 10
Mono-Mac-6 [9] | > 10
NOMO-1 [10] | > 10
SHI-1 [11] | > 10
THP-1 | > 10

cell viability [%], HL-60 [12]
Settings | 0.001 µM | 0.01 µM | 0.1 µM | 1 µM | 10 µM
co-treatment: AZD3965 100 nM | 89.82 | 94.8 | 101 | 103 | 67.9
co-treatment: DMSO vehicle | 102 | 95.8 | 98.77 | 103 | 88.3
co-treatment: GSK2194069 100 nM | 88.6 | 100 | 96.8 | 101 | 95.5
co-treatment: pictilisib 100 nM | 80.3 | 81.6 | 96.3 | 95.46 | 75.2

cell viability [%]
Settings | 1 nM | 10 nM | 100 nM | 1000 nM | 10000 nM
BV-173 [13] | 94.2 | 113 | 103 | 99.2 | 118
HEL [14] | 103 | 106 | 98.9 | 107 | 113
HL-60 [15] | 104 | 91.2 | 101 | 108 | 84.7
K-562 [16] | 99.2 | 96.3 | 92.8 | 104 | 89.4
KCL-22 [17] | 90.2 | 96.2 | 97.7 | 88.1 | 92.6
KU-812 [18] | 96.8 | 104 | 99.5 | 95 | 108
LAMA-84 [19] | 106 | 106 | 113 | 101 | 102
ML-2 [20] | 103 | 107 | 100 | 102 | 121
Mono-Mac-6 [21] | 103 | 109 | 98.8 | 101 | 108
NOMO-1 [22] | 95.5 | 100 | 110 | 97.8 | 102
SHI-1 [23] | 110 | 106 | 105 | 102 | 114

Source: the supplement of paper PMC8671470
